{"source": "the supplement of paper PMC10307832", "experiment_in_all_cases": "relative viability (nuclei count vs DMSO), 5 days (fraction); higher = more cells survive", "key": {"201T": {"system": "201T", "outline": "(§1)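 Five library-drug doses in √10 steps were combined with a fixed anchor-drug dose, or a single drug was given alone, by pin tool to lung cancer cell lines in 1536-well plates the day after seeding. Nuclei were stained and counted after 5 days. Relative viability is the nuclei count in treated wells over that in vehicle wells, taken as the median of duplicate plates.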"}, "COR-L23": {"system": "COR-L23", "outline": "as §1"}, "H3255": {"system": "H3255", "outline": "as §1"}, "HARA": {"system": "HARA", "outline": "as §1"}, "HCC-366": {"system": "HCC-366", "outline": "as §1"}, "HCC-78": {"system": "HCC-78", "outline": "as §1"}, "LU99A": {"system": "LU99A", "outline": "as §1"}, "NCI-H1650": {"system": "NCI-H1650", "outline": "as §1"}, "NCI-H1651": {"system": "NCI-H1651", "outline": "as §1"}, "NCI-H1755": {"system": "NCI-H1755", "outline": "as §1"}, "NCI-H1793": {"system": "NCI-H1793", "outline": "as §1"}, "NCI-H2085": {"system": "NCI-H2085", "outline": "as §1"}, "NCI-H2087": {"system": "NCI-H2087", "outline": "as §1"}, "NCI-H23": {"system": "NCI-H23", "outline": "as §1"}, "NCI-H3122": {"system": "NCI-H3122", "outline": "as §1"}, "NCI-H322M": {"system": "NCI-H322M", "outline": "as §1"}, "NCI-H358": {"system": "NCI-H358", "outline": "as §1"}, "NCI-H460": {"system": "NCI-H460", "outline": "as §1"}, "NCI-H522": {"system": "NCI-H522", "outline": "as §1"}, "NCI-H596": {"system": "NCI-H596", "outline": "as §1"}, "NCI-H650": {"system": "NCI-H650", "outline": "as §1"}, "PC-3 [JPC-3]": {"system": "PC-3 [JPC-3]", "outline": "as §1"}, "SK-LU-1": {"system": "SK-LU-1", "outline": "as §1"}}, "data": [{"smiles": "CN1CCN(CCOc2cc(OC3CCOCC3)c3c(Nc4c(Cl)ccc5c4OCO5)ncnc3c2)CC1", "note": "[Saracatinib] + N=C(N)NC(=N)NCCc1ccccc1 [Phenformin] (partner 250 µM)", "values": [{"measurement": "relative viability", "setting": "201T; first compound 0.02 µM", "result": 0.391}, {"measurement": "relative viability", "setting": "201T; first compound 0.2 µM", "result": 0.415}, {"measurement": "relative viability", "setting": "201T; first compound 0.6325 µM", "result": 0.422}, {"measurement": "relative viability", "setting": "201T; first compound 2 µM", "result": 0.369}, {"measurement": "relative viability", "setting": "COR-L23; first compound 0.02 µM", "result": 0.466}, {"measurement": "relative viability", "setting": "COR-L23; first compound 0.2 µM", "result": 0.393}, {"measurement": "relative viability", "setting": "COR-L23; first compound 0.6325 µM", "result": 0.481}, {"measurement": "relative viability", "setting": "COR-L23; first compound 2 µM", "result": 0.449}, {"measurement": "relative viability", "setting": "H3255; first compound 0.02 µM", "result": 0.354}, {"measurement": "relative viability", "setting": "H3255; first compound 0.2 µM", "result": 0.33}, {"measurement": "relative viability", "setting": "H3255; first compound 0.6325 µM", "result": 0.254}, {"measurement": "relative viability", "setting": "H3255; first compound 2 µM", "result": 0.251}, {"measurement": "relative viability", "setting": "HARA; first compound 0.02 µM", "result": 0.54}, {"measurement": "relative viability", "setting": "HARA; first compound 0.2 µM", "result": 0.279}, {"measurement": "relative viability", "setting": "HARA; first compound 0.6325 µM", "result": 0.496}, {"measurement": "relative viability", "setting": "HARA; first compound 2 µM", "result": 0.24}, {"measurement": "relative viability", "setting": "HCC-366; first compound 0.02 µM", "result": 0.694}, {"measurement": "relative viability", "setting": "HCC-366; first compound 0.6325 µM", "result": 0.599}, {"measurement": "relative viability", "setting": "HCC-366; first compound 2 µM", "result": 0.346}, {"measurement": "relative viability", "setting": "HCC-78; first compound 0.02 µM", "result": 0.704}, {"measurement": "relative viability", "setting": "HCC-78; first compound 0.6325 µM", "result": 0.772}, {"measurement": "relative viability", "setting": "HCC-78; first compound 2 µM", "result": 0.554}, {"measurement": "relative viability", "setting": "LU99A; first compound 0.02 µM", "result": 0.938}, {"measurement": "relative viability", "setting": "LU99A; first compound 0.2 µM", "result": 0.617}, {"measurement": "relative viability", "setting": "LU99A; first compound 0.6325 µM", "result": 0.879}, {"measurement": "relative viability", "setting": "LU99A; first compound 2 µM", "result": 0.707}, {"measurement": "relative viability", "setting": "NCI-H1650; first compound 0.02 µM", "result": 0.412}, {"measurement": "relative viability", "setting": "NCI-H1650; first compound 0.2 µM", "result": 0.253}, {"measurement": "relative viability", "setting": "NCI-H1650; first compound 0.6325 µM", "result": 0.317}, {"measurement": "relative viability", "setting": "NCI-H1650; first compound 2 µM", "result": 0.295}, {"measurement": "relative viability", "setting": "NCI-H1651; first compound 0.02 µM", "result": 0.414}, {"measurement": "relative viability", "setting": "NCI-H1651; first compound 0.2 µM", "result": 0.258}, {"measurement": "relative viability", "setting": "NCI-H1651; first compound 0.6325 µM", "result": 0.388}, {"measurement": "relative viability", "setting": "NCI-H1651; first compound 2 µM", "result": 0.3}, {"measurement": "relative viability", "setting": "NCI-H1755; first compound 0.02 µM", "result": 0.665}, {"measurement": "relative viability", "setting": "NCI-H1755; first compound 0.2 µM", "result": 0.484}, {"measurement": "relative viability", "setting": "NCI-H1755; first compound 0.6325 µM", "result": 0.597}, {"measurement": "relative viability", "setting": "NCI-H1755; first compound 2 µM", "result": 0.478}, {"measurement": "relative viability", "setting": "NCI-H1793; first compound 0.02 µM", "result": 0.439}, {"measurement": "relative viability", "setting": "NCI-H1793; first compound 0.6325 µM", "result": 0.308}, {"measurement": "relative viability", "setting": "NCI-H1793; first compound 2 µM", "result": 0.263}, {"measurement": "relative viability", "setting": "NCI-H2085; first compound 0.2 µM", "result": 0.694}, {"measurement": "relative viability", "setting": "NCI-H2085; first compound 0.6325 µM", "result": 0.809}, {"measurement": "relative viability", "setting": "NCI-H2085; first compound 2 µM", "result": 0.667}, {"measurement": "relative viability", "setting": "NCI-H2087; first compound 0.02 µM", "result": 0.484}, {"measurement": "relative viability", "setting": "NCI-H2087; first compound 0.2 µM", "result": 0.39}, {"measurement": "relative viability", "setting": "NCI-H2087; first compound 0.6325 µM", "result": 0.468}, {"measurement": "relative viability", "setting": "NCI-H2087; first compound 2 µM", "result": 0.355}, {"measurement": "relative viability", "setting": "NCI-H23; first compound 0.02 µM", "result": 0.807}, {"measurement": "relative viability", "setting": "NCI-H23; first compound 0.2 µM", "result": 0.631}, {"measurement": "relative viability", "setting": "NCI-H23; first compound 0.6325 µM", "result": 0.917}, {"measurement": "relative viability", "setting": "NCI-H23; first compound 2 µM", "result": 0.739}, {"measurement": "relative viability", "setting": "NCI-H3122; first compound 0.02 µM", "result": 0.385}, {"measurement": "relative viability", "setting": "NCI-H3122; first compound 0.2 µM", "result": 0.248}, {"measurement": "relative viability", "setting": "NCI-H3122; first compound 0.6325 µM", "result": 0.301}, {"measurement": "relative viability", "setting": "NCI-H3122; first compound 2 µM", "result": 0.285}, {"measurement": "relative viability", "setting": "NCI-H322M; first compound 0.02 µM", "result": 0.708}, {"measurement": "relative viability", "setting": "NCI-H322M; first compound 0.2 µM", "result": 0.694}, {"measurement": "relative viability", "setting": "NCI-H322M; first compound 0.6325 µM", "result": 0.55}, {"measurement": "relative viability", "setting": "NCI-H322M; first compound 2 µM", "result": 0.334}, {"measurement": "relative viability", "setting": "NCI-H358; first compound 0.02 µM", "result": 0.37}, {"measurement": "relative viability", "setting": "NCI-H358; first compound 0.2 µM", "result": 0.298}, {"measurement": "relative viability", "setting": "NCI-H358; first compound 0.6325 µM", "result": 0.23}, {"measurement": "relative viability", "setting": "NCI-H358; first compound 2 µM", "result": 0.171}, {"measurement": "relative viability", "setting": "NCI-H460; first compound 0.02 µM", "result": 0.534}, {"measurement": "relative viability", "setting": "NCI-H460; first compound 0.2 µM", "result": 0.382}, {"measurement": "relative viability", "setting": "NCI-H460; first compound 0.6325 µM", "result": 0.491}, {"measurement": "relative viability", "setting": "NCI-H460; first compound 2 µM", "result": 0.435}, {"measurement": "relative viability", "setting": "NCI-H522; first compound 0.02 µM", "result": 0.553}, {"measurement": "relative viability", "setting": "NCI-H522; first compound 0.6325 µM", "result": 0.639}, {"measurement": "relative viability", "setting": "NCI-H522; first compound 2 µM", "result": 0.612}, {"measurement": "relative viability", "setting": "NCI-H596; first compound 0.02 µM", "result": 0.845}, {"measurement": "relative viability", "setting": "NCI-H596; first compound 0.2 µM", "result": 0.625}, {"measurement": "relative viability", "setting": "NCI-H596; first compound 0.6325 µM", "result": 0.689}, {"measurement": "relative viability", "setting": "NCI-H596; first compound 2 µM", "result": 0.67}, {"measurement": "relative viability", "setting": "NCI-H650; first compound 0.02 µM", "result": 0.465}, {"measurement": "relative viability", "setting": "NCI-H650; first compound 0.2 µM", "result": 0.429}, {"measurement": "relative viability", "setting": "NCI-H650; first compound 0.6325 µM", "result": 0.495}, {"measurement": "relative viability", "setting": "NCI-H650; first compound 2 µM", "result": 0.461}, {"measurement": "relative viability", "setting": "PC-3 [JPC-3]; first compound 0.02 µM", "result": 0.49}, {"measurement": "relative viability", "setting": "PC-3 [JPC-3]; first compound 0.2 µM", "result": 0.421}, {"measurement": "relative viability", "setting": "PC-3 [JPC-3]; first compound 0.6325 µM", "result": 0.421}, {"measurement": "relative viability", "setting": "PC-3 [JPC-3]; first compound 2 µM", "result": 0.339}, {"measurement": "relative viability", "setting": "SK-LU-1; first compound 0.02 µM", "result": 0.474}, {"measurement": "relative viability", "setting": "SK-LU-1; first compound 0.2 µM", "result": 0.351}, {"measurement": "relative viability", "setting": "SK-LU-1; first compound 0.6325 µM", "result": 0.25}, {"measurement": "relative viability", "setting": "SK-LU-1; first compound 2 µM", "result": 0.209}]}]}
